Assay results as given in BigSolDB 2.1.

COc1ccc2c3c1O[C@H]1[C@@H](O)C=C[C@H]4[C@@H](C2)N(C)CC[C@@]341.O=P(O)(O)O
solubility (mole fraction)
Details | 293.2 K | 298.2 K | 303.2 K | 308.2 K | 313.2 K
in NMP | 0.00206 | 0.00212 | 0.00239 | 0.00249 | 0.00259
in isopropanol | 1.96e-05 | 2.52e-05 | 2.99e-05 | 3.6e-05 | 3.99e-05
